Laboratory results: PMC11812216, “Multifunctional hyaluronic acid-based biomimetic/pH-responsive hybrid nanostructured lipid carriers for treating bacterial sepsis” (Journal of Biomedical Science, 2025)

Columns and labels:
[1] = target: T1, Recombinant human TLR4 (Active ab233665) (Homo sapiens, UniProt O00206); test: microscale thermophoresis, Blue-NHS-labelled TLR4; assay type: binding
T1 construct: commercial recombinant protein (Abcam), labelled with Blue-NHS dye; no MD-2 mentioned
From the text: microscale thermophoresis, Blue-NHS-labelled TLR4 on Recombinant human TLR4 (Active ab233665)

[2] = target: T2, Recombinant human TLR2 (RPA663Hu03) (Homo sapiens, UniProt O60603); test: microscale thermophoresis, His-tag-labelled TLR2; assay type: binding
T2 construct: commercial recombinant protein (Biocom Africa), His-tag labelled with Red-tris-NTA
T2 sequence (O60603 21-588 limits assumed): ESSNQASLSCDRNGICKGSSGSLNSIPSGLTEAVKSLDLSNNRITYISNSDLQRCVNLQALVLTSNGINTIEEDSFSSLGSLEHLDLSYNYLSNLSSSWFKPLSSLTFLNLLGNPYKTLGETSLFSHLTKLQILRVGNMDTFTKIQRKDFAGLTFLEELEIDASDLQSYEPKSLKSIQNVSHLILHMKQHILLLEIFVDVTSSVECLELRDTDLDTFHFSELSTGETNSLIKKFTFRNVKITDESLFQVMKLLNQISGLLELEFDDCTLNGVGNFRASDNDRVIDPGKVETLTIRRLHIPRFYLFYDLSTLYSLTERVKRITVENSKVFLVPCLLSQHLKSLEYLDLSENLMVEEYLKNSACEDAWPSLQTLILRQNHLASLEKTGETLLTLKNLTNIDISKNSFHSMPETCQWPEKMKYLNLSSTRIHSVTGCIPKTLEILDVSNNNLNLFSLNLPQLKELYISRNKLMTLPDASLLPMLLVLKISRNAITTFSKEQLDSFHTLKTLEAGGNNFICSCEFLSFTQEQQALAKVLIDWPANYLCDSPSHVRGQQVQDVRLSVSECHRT
From the text: microscale thermophoresis, His-tag-labelled TLR2 on Recombinant human TLR2 (RPA663Hu03)

T1 sequence (O00206 24-631 limits assumed): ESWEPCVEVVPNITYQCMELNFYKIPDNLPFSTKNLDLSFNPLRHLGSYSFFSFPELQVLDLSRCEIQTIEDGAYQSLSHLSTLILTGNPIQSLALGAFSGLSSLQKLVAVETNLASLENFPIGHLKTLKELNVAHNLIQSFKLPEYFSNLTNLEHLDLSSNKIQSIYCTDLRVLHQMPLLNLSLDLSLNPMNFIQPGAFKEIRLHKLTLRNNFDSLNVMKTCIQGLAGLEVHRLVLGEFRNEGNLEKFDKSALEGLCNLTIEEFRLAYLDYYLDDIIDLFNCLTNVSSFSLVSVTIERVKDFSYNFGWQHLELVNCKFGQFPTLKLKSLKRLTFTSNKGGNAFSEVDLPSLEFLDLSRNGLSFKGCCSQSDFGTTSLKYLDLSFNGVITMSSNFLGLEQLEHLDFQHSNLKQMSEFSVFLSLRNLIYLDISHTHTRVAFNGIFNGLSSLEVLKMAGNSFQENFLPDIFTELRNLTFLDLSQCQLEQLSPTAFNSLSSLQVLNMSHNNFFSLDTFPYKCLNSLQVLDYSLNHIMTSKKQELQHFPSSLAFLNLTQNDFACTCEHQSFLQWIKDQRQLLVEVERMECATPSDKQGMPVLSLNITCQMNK

Kd [1]: 43.5 ± 2.35 µM
Kd [2]: 2.78 ± 0.74 µM
SMILES: NCCCC[C@H](N)C(=O)O [Lys]
